Experimental data taken from patent US9902934B2, “Human keratinocytes PTCH1 cell line” (GALDERMA RESEARCH & DEVELOPMENT, priority 2011, dated 2018).

Legend:
[1] = test system: SHH/PTCH pathway; assay: Activation of PTCH1-luciferase reporter activity in SK PTCH1-Luc E6/E7 keratinocytes; format: cell-based, human; conditions: SK PTCH1-Luc E6/E7 cells, cultured 24 hours
Experimental: (§1) Purmorphamine (SMO agonist) and GDC-0449 (SMO antagonist) were diluted in DMSO at stock concentrations of 50 mM and 10 mM, respectively. To avoid side effects and toxicity, the final concentration of DMSO was fixed to 0.1% DMSO.
(§2) Lysis buffer and luciferase reagents were from the Steady-Glo® Luciferase Assay System kit (Promega, #E2520). Plates were read on a […] (TopCount, Perkin Elmer).
(§3) Experimental conditions of activation using SMO agonist of the PTCH1-Luc-E6 E7 reporter cells were first set up for optimisation. The SK PTCH1-Luc E6/E7 cells were plated in 96-well at various densities (5000 to 50000 cells/well) in opaque plates (Greiner, ref: 655083). In parallel, in order to follow cell growth, confluency, and lysis, the cell line was also seeded in transparent 96 wells plates (Greiner 655098). Serial dilutions of purmorphamine were prepared (0.2 nM<Conc.<50 μM). Results were matched with EC50 and IC50 values obtained in the SHH-Light II cell line.
Once experimental conditions optimized, SK PTCH1-Luc E6/E7 cells were plated at 45.000 cells per well, culture for 24 hours then treated for 48 hours by serial dilutions of purmorphamine. Each condition was done in duplicate and the experiment was performed at least twice. SK PTCH1-Luc E6/E7 cells responded to activation of the SHH/PTCH pathway when treated with purmorphamine and the EC50 value was determined at 1 μM (FIG. 3).

[2] = test system: SHH/PTCH pathway; assay: Inhibition of purmorphamine-induced luciferase activity in SK PTCH1-Luc E6/E7 keratinocytes; format: cell-based; conditions: Homo sapiens, Keratinocyte, SK PTCH1-Luc E6/E7 cells, co-treatment 48 hours with 2.5 μM purmorphamine (EC80)
Experimental: as §1, §2, §3
Co-treatment of SK PTCH1-Luc E6/E7 cells with purmorphamine and GDC-0449 led to the inhibition of the luciferase activity (FIG. 5). Under these circumstances, the IC50 of GDC-0449 was determined at 0.2 μM.

Row | EC50 ([1]; Homo sapiens, Keratinocyte, 45.000 cells per well, treated 48 hours) | IC50 [2] | Compound | effective concentration for 80% activation (EC80) ([1]; 45.000 cells/well, treated 48 hrs)
1 | 1 µM |  | c1ccc2c(Oc3nc(Nc4ccc(N5CCOCC5)cc4)c4ncn(C5CCCCC5)c4n3)cccc2c1 [purmorphamine, Purmorphamine] | 2.5 µM
2 |  | 0.2 µM | CS(=O)(=O)c1ccc(C(=O)Nc2ccc(Cl)c(-c3ccccn3)c2)c(Cl)c1 [GDC-0449] | 
